Experiments:
[1] = 0.5 to 30 mg administered orally; cited from earlier work
CYP2C19 = CYP2C19 (Homo sapiens, UniProt P33261); assay: In vitro P450 inhibition, recombinant CYP2C19; type: in vitro ADME
BSEP = BSEP (Homo sapiens, UniProt O95342); assay: BSEP vesicular transport inhibition assay; type: in vitro ADME
CYP2D6 = CYP2D6 (Homo sapiens, UniProt P10635); assay: In vitro P450 inhibition, recombinant CYP2D6; type: in vitro ADME
CYP3A4 = CYP3A4 (Homo sapiens, UniProt P08684); type: in vitro ADME; settings: 3 µm ocedurenone, NADPH, 60 min
CYP3A4, sequence (P08684 whole entry): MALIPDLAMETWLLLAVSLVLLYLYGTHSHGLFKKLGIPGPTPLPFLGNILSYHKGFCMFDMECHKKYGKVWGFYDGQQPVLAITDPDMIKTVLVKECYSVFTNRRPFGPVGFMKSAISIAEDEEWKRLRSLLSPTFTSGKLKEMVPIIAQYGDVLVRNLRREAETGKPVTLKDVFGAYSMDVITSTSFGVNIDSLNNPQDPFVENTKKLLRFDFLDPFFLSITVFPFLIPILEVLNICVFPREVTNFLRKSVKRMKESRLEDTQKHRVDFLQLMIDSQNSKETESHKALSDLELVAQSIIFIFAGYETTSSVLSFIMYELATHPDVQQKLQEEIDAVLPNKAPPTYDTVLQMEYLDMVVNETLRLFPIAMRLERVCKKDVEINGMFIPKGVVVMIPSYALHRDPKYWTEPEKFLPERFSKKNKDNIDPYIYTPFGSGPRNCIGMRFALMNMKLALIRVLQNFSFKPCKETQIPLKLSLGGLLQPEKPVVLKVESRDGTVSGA

MATE2-K = MATE2-K (Homo sapiens, UniProt Q86VL8); assay: MATE2-K uptake substrate assay; type: in vitro ADME
MATE2-K, sequence (Q86VL8 1-566 isoform Q86VL8-3): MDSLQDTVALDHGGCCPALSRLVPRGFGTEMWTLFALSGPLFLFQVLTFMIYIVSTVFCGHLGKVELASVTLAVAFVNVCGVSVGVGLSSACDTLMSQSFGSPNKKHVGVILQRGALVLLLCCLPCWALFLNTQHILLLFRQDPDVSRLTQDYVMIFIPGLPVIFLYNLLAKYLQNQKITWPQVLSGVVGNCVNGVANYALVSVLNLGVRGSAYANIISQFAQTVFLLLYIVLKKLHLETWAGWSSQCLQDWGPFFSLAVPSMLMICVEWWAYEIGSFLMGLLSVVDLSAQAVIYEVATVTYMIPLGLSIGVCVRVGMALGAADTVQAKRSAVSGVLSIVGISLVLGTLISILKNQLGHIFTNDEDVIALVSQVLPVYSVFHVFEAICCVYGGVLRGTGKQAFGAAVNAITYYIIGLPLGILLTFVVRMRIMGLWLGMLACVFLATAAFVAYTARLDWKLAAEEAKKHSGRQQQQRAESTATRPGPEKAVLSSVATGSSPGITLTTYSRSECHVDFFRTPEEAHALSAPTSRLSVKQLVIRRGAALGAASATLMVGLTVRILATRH

OAT3 = target: T1, OAT3 (Homo sapiens, UniProt Q8TCC7); assay: OAT3 uptake substrate assay; type: in vitro ADME
T1 sequence (Q8TCC7 1-542): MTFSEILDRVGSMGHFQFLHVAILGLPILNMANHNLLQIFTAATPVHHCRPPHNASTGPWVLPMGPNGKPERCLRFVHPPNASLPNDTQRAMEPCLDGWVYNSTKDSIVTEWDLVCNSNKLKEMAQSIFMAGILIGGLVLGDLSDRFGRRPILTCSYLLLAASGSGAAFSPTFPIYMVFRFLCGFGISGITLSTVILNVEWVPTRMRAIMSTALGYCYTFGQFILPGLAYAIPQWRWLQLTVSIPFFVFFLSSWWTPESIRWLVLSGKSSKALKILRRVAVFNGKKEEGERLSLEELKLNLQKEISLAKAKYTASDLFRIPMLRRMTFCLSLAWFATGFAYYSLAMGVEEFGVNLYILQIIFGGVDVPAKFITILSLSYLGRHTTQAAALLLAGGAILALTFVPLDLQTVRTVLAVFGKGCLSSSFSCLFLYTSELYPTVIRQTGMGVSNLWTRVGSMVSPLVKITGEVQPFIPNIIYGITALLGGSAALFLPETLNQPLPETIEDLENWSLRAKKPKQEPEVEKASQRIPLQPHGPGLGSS

[2] = transporter-expressing vs control cells, 0.04–40 µm

CYP2D6, sequence (P10635 whole entry): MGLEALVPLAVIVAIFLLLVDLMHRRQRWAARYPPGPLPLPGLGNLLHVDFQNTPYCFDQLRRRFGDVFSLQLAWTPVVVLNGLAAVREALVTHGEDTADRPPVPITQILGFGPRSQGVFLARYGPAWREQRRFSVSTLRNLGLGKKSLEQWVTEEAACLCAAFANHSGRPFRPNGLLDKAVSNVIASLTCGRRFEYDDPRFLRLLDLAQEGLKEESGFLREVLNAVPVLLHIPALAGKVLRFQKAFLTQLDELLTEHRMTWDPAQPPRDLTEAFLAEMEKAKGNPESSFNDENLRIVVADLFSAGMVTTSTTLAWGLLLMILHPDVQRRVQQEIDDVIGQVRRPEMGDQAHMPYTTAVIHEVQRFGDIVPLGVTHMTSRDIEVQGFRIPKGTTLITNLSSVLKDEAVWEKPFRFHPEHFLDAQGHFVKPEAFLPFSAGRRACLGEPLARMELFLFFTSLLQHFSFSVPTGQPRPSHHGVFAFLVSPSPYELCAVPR
CYP2C19, sequence (P33261 whole entry): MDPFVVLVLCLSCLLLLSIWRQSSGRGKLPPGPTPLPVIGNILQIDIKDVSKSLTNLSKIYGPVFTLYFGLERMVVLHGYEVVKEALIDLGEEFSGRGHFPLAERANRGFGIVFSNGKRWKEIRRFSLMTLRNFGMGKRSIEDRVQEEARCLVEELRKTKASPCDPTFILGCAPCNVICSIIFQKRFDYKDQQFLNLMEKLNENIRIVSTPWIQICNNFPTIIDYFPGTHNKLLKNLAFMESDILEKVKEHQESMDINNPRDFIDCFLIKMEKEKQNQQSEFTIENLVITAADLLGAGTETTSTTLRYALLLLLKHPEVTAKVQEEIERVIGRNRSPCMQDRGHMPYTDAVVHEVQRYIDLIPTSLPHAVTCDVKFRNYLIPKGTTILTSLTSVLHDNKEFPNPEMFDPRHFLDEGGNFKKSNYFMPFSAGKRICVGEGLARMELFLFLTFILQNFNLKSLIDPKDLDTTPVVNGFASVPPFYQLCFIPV
BSEP, sequence (O95342 whole entry): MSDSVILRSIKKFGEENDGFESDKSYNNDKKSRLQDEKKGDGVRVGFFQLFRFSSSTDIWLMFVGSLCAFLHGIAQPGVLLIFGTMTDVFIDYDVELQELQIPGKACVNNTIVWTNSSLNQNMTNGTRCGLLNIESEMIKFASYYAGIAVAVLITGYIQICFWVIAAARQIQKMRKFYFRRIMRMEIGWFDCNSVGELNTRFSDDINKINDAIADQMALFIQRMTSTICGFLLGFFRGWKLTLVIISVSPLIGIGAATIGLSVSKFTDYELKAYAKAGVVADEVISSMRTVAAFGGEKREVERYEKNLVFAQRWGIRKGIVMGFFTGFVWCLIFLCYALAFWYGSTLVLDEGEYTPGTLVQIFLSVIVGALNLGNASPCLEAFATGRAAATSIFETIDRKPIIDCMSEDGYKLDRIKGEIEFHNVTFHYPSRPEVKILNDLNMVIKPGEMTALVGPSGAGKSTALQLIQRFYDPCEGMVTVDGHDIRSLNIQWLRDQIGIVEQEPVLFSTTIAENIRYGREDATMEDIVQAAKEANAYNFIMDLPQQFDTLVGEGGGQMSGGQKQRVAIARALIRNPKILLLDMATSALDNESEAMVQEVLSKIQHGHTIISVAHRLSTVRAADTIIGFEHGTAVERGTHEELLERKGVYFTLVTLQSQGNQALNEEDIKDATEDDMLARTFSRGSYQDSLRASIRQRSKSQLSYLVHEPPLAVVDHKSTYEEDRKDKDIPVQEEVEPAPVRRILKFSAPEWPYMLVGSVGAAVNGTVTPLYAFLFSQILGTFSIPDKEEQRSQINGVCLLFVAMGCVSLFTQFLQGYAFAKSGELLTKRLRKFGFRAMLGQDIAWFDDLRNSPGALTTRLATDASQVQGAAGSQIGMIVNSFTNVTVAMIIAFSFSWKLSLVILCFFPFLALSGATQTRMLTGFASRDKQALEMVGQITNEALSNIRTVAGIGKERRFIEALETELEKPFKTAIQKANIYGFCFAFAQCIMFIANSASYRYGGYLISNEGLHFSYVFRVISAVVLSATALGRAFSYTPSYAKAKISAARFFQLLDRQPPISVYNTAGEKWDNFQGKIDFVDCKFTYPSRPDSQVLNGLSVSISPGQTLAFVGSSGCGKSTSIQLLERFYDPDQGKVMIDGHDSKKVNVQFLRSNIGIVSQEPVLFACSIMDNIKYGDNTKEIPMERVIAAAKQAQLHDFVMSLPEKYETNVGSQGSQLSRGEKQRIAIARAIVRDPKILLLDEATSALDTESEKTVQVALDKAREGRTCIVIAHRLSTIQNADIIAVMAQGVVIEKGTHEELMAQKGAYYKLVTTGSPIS

N#Cc1ccc(N2N=C3c4ccc(C(=O)N5CCC(O)CC5)nc4CC[C@@H]3[C@@H]2C2CCCC2)cc1Cl [Ocedurenone, ocedurenone]
safety and tolerability, single ascending dose [1]: safe and well-tolerated | percent remaining activity of CYP2C19 (CYP2C19; ocedurenone at 200 μM): 78.5% | IC50 (CYP2C19; read-out: IC50 CYP2C19, recombinant CYP): > 200 µM | inhibition category CYP2C19 (CYP2C19; recombinant enzyme): little or no inhibition | inhibition of BSEP at 40 µM (BSEP; first vesicular transport run, 40 µM): 79% | maximum inhibition of BSEP-mediated transport (BSEP; repeat with 7 concentrations): 71% | percent remaining activity of CYP2D6 (CYP2D6; ocedurenone at 200 μM): 87.8% | IC50 (CYP2D6; read-out: IC50 CYP2D6, recombinant CYP): > 200 µM | inhibition category CYP2D6 (CYP2D6; recombinant enzyme): little or no inhibition | metabolism in recombinant CYP3A4 incubation (CYP3A4): Most extensive metabolism | Substrate, MATE2-K UPT (MATE2-K): not likely to be a substrate | Maximum fold accumulation, MATE2-K UPT (MATE2-K; [2]): < 2 | Substrate, OAT3 UPT (OAT3): not likely to be a substrate | Maximum fold accumulation, OAT3 UPT (OAT3; [2]): < 2
